Each structure is given as a SMILES string. Some results are limits rather than exact numbers.

For one test, the target named is P70S6K (Homo sapiens (Human), UniProt P23443, T412E). Briefly: P70S6K Enzyme Assay. The class given is biochemical. Particulars: P70S6K T412E mutant, 24 μM ATP, mobility shift (Caliper). On the procedure:
P70S6K inhibitor compounds are diluted and plated in 96 well plates. […] The reaction is incubated for 90 min at 25° C., before the addition of 10 mM EDTA to stop the reaction. The proportion of substrate and product (phosphorylated) peptide is analysed on a Caliper Life Sciences Lab Chip 3000, using a pressure of −1.4 psi, and upstream and downstream voltages of −3000 and −700 respectively. Product peaks are resolved before substrate peaks on the resulting chromatograms.

In another test the target is AKT (Homo sapiens (Human), UniProt P31749). The test can be described thus: AKT Enyzme Assay. The class given is biochemical. Particulars: His-AKT (Full Length), 160 uM ATP, mobility shift (Caliper). How it is done: A TTP Mosquito liquid handling instrument is used to place 125 nl of the appropriate concentration of inhibitor in 100% DMSO (for a dose response curve calculation) into each well of a 384-well plate.
The reaction is incubated for 90 min at 25 C, and then stopped by the addition of 70 μl of Stop buffer (100 mM HEPES pH 7.5, 0.015% Brij-35, 10 mM EDTA (Sigma, E7889)).
The plate is read on a Caliper LC 3000 in an Off-Chip mobility shift assay format, using the following parameters for a 12-sipper chip: screening pressure −2.3 psi, upstream voltage −500, and downstream voltage −3000. These conditions cause unphosphorylated substrate and phosphorylated product peptide to resolve as separate peaks allowing direct measurement of percentage of conversion of substrate to product. The percent conversion can be plotted against concentration of inhibitor to produce a sigmoidal dose response curve, from which an IC50 can be calculated.

P70S6K, sequence (P23443 1-421 T412E): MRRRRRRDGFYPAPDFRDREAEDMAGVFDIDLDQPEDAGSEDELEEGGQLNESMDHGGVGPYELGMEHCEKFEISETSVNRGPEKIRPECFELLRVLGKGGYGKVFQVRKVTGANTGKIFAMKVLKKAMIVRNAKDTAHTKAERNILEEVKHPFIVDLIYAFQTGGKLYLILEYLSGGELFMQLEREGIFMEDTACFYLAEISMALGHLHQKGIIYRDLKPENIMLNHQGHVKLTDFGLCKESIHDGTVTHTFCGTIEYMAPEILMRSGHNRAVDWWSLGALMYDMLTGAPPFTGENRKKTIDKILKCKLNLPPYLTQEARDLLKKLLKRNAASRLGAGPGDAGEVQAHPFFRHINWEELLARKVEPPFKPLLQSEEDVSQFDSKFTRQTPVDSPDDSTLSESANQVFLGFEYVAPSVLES
AKT, sequence (P31749 whole entry): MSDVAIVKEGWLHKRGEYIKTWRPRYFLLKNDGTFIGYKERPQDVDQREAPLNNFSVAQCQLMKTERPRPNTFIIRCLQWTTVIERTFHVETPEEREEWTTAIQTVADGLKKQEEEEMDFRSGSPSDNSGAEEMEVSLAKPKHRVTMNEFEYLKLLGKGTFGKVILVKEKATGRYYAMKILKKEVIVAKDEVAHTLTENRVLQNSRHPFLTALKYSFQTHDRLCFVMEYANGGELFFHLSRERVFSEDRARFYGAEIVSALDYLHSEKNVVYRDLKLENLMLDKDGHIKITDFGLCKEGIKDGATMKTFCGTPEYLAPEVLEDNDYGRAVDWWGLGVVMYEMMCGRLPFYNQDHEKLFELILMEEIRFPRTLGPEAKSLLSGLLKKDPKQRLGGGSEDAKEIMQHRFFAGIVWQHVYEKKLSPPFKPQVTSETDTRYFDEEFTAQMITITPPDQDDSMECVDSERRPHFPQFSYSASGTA

The term IC50 denotes the point on the concentration scale where inhibition reaches its midpoint. `NC(=O)c1ccc(NCCc2ccc(F)cc2)c2cncnc12` [Example 100, 5-[2-(4-fluorophenyl)ethylamino]quinazoline-8-carboxamide]: the IC50 on P70S6K is 290 nM; on AKT, 4.8 µM.
As to `NC(=O)c1ccc(N2CCN(c3cccc(F)c3)CC2)c2cncnc12` [Example 95, 5-[4-(3-fluoro-phenyl)-piperazin-1-yl]-quinazoline-8-carboxylic acid amide], the 50% inhibitory concentration (IC50) at P70S6K was 770 nM; on AKT, 6.4 µM.
As for `NC(=O)c1ccc(NCCc2ccc(F)c(F)c2)c2cncnc12` [Example 101, 5-[2-(3,4-difluorophenyl)ethylamino]quinazoline-8-carboxamide], the IC50 is 360 nM at P70S6K and 41 µM on AKT.
For `NC(=O)c1ccc(NC2CNCC2c2cccc(C(F)(F)F)c2)c2cncnc12` (stereo not drawn) [Example 71, 5-((4-(3-(trifluoromethyl)phenyl)pyrrolidin-3-yl)amino)quinazoline-8-carboxamide], the IC50 is 21 nM on P70S6K and 4.5 µM on AKT.
Consider `NC(=O)c1ccc(N2CCN(c3ccc(F)cc3)CC2)c2cncnc12` [Example 108, 5-[4-(4-fluorophenyl)-piperazin-1-yl]-quinazoline-8-carboxylic acid amide], for which the IC50 on P70S6K is 2300 nM; on AKT, greater than 100 µM.
`NC(=O)c1ccc(N2CCN(c3cccc(C(F)(F)F)c3)CC2)c2cncnc12` [Example 109, 5-[4-(3-trifluoromethylphenyl)-piperazin-1-yl]-quinazoline-8-carboxylic acid amide]: the half-maximal inhibitory concentration (IC50) at P70S6K turned out to be 11000 nM; at AKT it was 23 µM.
Take `NC(=O)c1ccc(NC[C@H]2CCNC2)c2cncnc12` [Example 61, (S)-5-((pyrrolidin-3-ylmethyl)amino)quinazoline-8-carboxamide]: the IC50 at P70S6K is 1700 nM; on AKT it was greater than 100 µM.
`NC(=O)c1ccc(NCCCCc2ccccc2)c2cncnc12` [Example 102, 5-(4-phenylbutylamino)quinazoline-8-carboxamide]: the figures for the IC50 at P70S6K and at AKT were 87 nM and greater than 100 µM, respectively.
For `NCC1CCCN(c2ccc(C(N)=O)c3ncncc23)C1` (racemic) [Example 56, 5-(3-(aminomethyl)piperidin-1-yl)quinazoline-8-carboxamide], in that order: 56000 nM and greater than 100 µM.
The matching figures for `NC(=O)c1ccc(N2CCC(c3cccc(C(F)(F)F)c3)C(N)C2)c2cncnc12` (racemic) [Example 107, 5-[3-Amino-4-(3-trifluoromethyl-phenyl)-piperidin-1-yl]-quinazoline-8-carboxylic acid amide]: 380 nM and 8.1 µM.
As to `NC(=O)c1ccc(NC2CNCC2c2cccc(OC(F)(F)F)c2)c2cncnc12` (stereo not drawn) [Example 72, 5-((4-(3-(trifluoromethoxy)phenyl)pyrrolidin-3-yl)amino)quinazoline-8-carboxamide], the 50% inhibitory concentration (IC50) was 100 nM on P70S6K and greater than 100 µM at AKT.
Consider `NC(=O)c1ccc(N[C@H]2CNCC[C@@H]2c2ccc(F)cc2)c2cncnc12` (single isomer, unassigned) [Example 80], for which the IC50 on P70S6K was 290 nM; on AKT, 2.2 µM.
With `NC(=O)c1ccc(NC[C@@H]2CCNC2)c2cncnc12` [Example 60, (R)-5-((pyrrolidin-3-ylmethyl)amino)quinazoline-8-carboxamide], the figures for the IC50 at P70S6K and at AKT were 4800 nM and greater than 100 µM, respectively.
`NC(=O)c1ccc(N2CCN(c3ccccc3)CC2)c2cncnc12` [Example 91, 5-[4-phenyl-piperazin-1-yl]-quinazoline-8-carboxylic acid amide]: the IC50 at P70S6K was 3000 nM; at AKT it was 15 µM.
Regarding `NC(=O)c1ccc(N[C@@H]2CNCC[C@H]2c2ccc(F)c(Cl)c2)c2cncnc12` (single isomer, unassigned) [Example 78], the IC50 on P70S6K stood at 350 nM; at AKT, 5.7 µM.
Take `NC(=O)c1ccc(NC2CCNCC2c2ccc(F)cc2)c2cncnc12` (stereo not drawn) [Example 70, 5-((3-(4-fluorophenyl)piperidin-4-yl)amino)quinazoline-8-carboxamide]: the results for the IC50 on P70S6K and at AKT were 550 nM and 2.5 µM, respectively.
The matching figures for `NC(=O)c1ccc(N2CCC(O)(c3ccccc3)C2)c2cncnc12` (racemic) [Example 66, 5-(3-hydroxy-3-phenylpyrrolidin-1-yl)quinazoline-8-carboxamide]: 1800 nM and greater than 100 µM.
`NC(=O)c1ccc(N[C@H]2CNCC[C@@H]2c2ccc(F)c(Cl)c2)c2cncnc12` (single isomer, unassigned) [Example 77]: the concentration for half-maximal inhibition (IC50) on P70S6K is 50 nM; on AKT, 0.85 µM.
For `NC(=O)c1ccc(NC2CNCCC2c2ccc(F)c(Cl)c2)c2cncnc12` (stereo not drawn) [Example 76, 5-((4-(3-chloro-4-fluorophenyl)piperidin-3-yl)amino)quinazoline-8-carboxamide], in that order: 33 nM and 0.57 µM.
For `NC(=O)c1ccc(N[C@@H]2CNCC[C@H]2c2ccc(F)cc2)c2cncnc12` (single isomer, unassigned) [Example 81], the IC50 on P70S6K worked out at 52 nM; at AKT it was 0.9 µM.
For the compound `NC(=O)c1ccc(NCC(c2ccccc2)N2CCNCC2)c2cncnc12` (racemic) [Example 69, 5-((2-phenyl-2-(piperazin-1-yl)ethyl)amino)quinazoline-8-carboxamide], the concentration for half-maximal inhibition (IC50) at AKT is 10 µM.
Consider `NC(=O)c1ccc(N2CCC(OCc3ccccc3)C2)c2cncnc12` (racemic) [Example 65, 5-(3-(benzyloxy)pyrrolidin-1-yl)quinazoline-8-carboxamide], for which the IC50 is 710 nM on P70S6K and greater than 100 µM on AKT.
As for `NC(=O)c1ccc(N2CCN(c3ccc(F)c(Cl)c3)CC2)c2cncnc12` [Example 94, 5-[4-(3-chloro-4-fluorophenyl)-piperazin-1-yl]-quinazoline-8-carboxylic acid amide], the 50% inhibitory concentration (IC50) on P70S6K was 12000 nM; at AKT, greater than 100 µM.
As to `NC(=O)c1ccc(NC2CNCCC2c2ccc(F)cc2)c2cncnc12` (stereo not drawn) [Example 79, 5-((4-(4-fluorophenyl)piperidin-3-yl)amino)quinazoline-8-carboxamide], the IC50 was 290 nM at P70S6K and 2 µM on AKT.
In the case of `NC(=O)c1ccc(NC2CNCCC2c2ccc(Cl)c(F)c2)c2cncnc12` (stereo not drawn) [Example 75, 5-((4-(4-chloro-3-fluorophenyl)piperidin-3-yl)amino)quinazoline-8-carboxamide], the half-inhibitory concentration (IC50) on P70S6K turned out to be 8.1 nM; on AKT, 0.13 µM.
With `NC(=O)c1ccc(NCCc2ccccc2)c2cncnc12` [Example 98, 5-(phenethylamino)quinazoline-8-carboxamide], the 50% inhibitory concentration (IC50) on P70S6K is 89 nM; at AKT, 5.6 µM.
For `NC(=O)c1ccc(N2CCN(c3ccc(C(F)(F)F)cc3)CC2)c2cncnc12` [Example 90, 5-[4-(4-Trifluoromethyl-phenyl)-piperazin-1-yl]-quinazoline-8-carboxylic acid amide], in that order: 24000 nM and greater than 100 µM.
For the compound `Cc1cccc([C@@H]2CN(c3ccc(C(N)=O)c4ncncc34)C[C@H]2CO)c1` [Example 67, 5-((3S,4R)-3-(hydroxymethyl)-4-(m-tolyl)pyrrolidin-1-yl)quinazoline-8-carboxamide], the IC50 at P70S6K came to 190 nM; on AKT it was 8.2 µM.
Turning to `CNCC1CCCN(c2ccc(C(N)=O)c3ncncc23)C1` (racemic) [Example 59, 5-(3-((methylamino)methyl)piperidin-1-yl)quinazoline-8-carboxamide], the 50% inhibitory concentration (IC50) on P70S6K worked out at 5900 nM; on AKT, 18 µM.
The matching figures for `NC(=O)c1ccc(N2CCN(c3ccc(F)c(F)c3)CC2)c2cncnc12` [Example 92, 5-[4-(3,4-difluoro-phenyl)-piperazin-1-yl]-quinazoline-8-carboxylic acid amide]: 1000 nM and greater than 100 µM.
As to `NC(=O)c1ccc(NCc2cccc(Cl)c2)c2cncnc12` [Example 63, 5-((3-chlorobenzyl)amino)quinazoline-8-carboxamide], the IC50 on P70S6K stood at 59.2 nM; at AKT, 12 µM.
Turning to `Cc1cccc(C2CCNCC2Nc2ccc(C(N)=O)c3ncncc23)c1` (stereo not drawn) [Example 73, 5-((4-(m-tolyl)piperidin-3-yl)amino)quinazoline-8-carboxamide], the IC50 came out at 390 nM at P70S6K and 9 µM on AKT.
In the case of `NC(=O)c1ccc(NCCc2cccc(F)c2)c2cncnc12` [Example 99, 5-[2-(3-fluorophenyl)ethylamino]quinazoline-8-carboxamide], the 50% inhibitory concentration (IC50) at P70S6K worked out at 120 nM; at AKT it was 2.4 µM.
For the compound `NC(=O)c1ccc(NC2CNCCC2c2cccc(C(F)(F)F)c2)c2cncnc12` (stereo not drawn) [Example 74, 5-((4-(3-(trifluoromethyl)phenyl)piperidin-3-yl)amino)quinazoline-8-carboxamide], the IC50 at P70S6K came out at 140 nM; on AKT it was 2.1 µM.
For `CN(C)C(CNc1ccc(C(N)=O)c2ncncc12)c1cccc(Cl)c1` (racemic) [Example 68, 5-((2-(3-chlorophenyl)-2-(dimethylamino)ethyl)amino)quinazoline-8-carboxamide], the results for the IC50 at P70S6K and on AKT were 2600 nM and greater than 100 µM, respectively.

The values above are taken from US9139568B2 (Merck Patent GmbH, priority 2011, dated 2015).
